Source: patent US8084466B2, “Bicyclic heteroaryl-substituted imidazoles as modulators of the histamine H4 receptor” (Janssen Pharmaceutica NV, priority 2007, dated 2011)

Molecular target: T1, human histamine H4 receptor (Homo sapiens, UniProt Q9H3N8)
T1 construct: expressed in transfected cells; host or cells: SK-N-MC cells or COS7 cells, transient transfection with pH4R; cell membranes
Experiment: Binding Assay on Recombinant Human Histamine H4 Receptor
Conditions: competition binding with 3H-histamine (5 nM; KD 5 nM), membranes of SK-N-MC or COS7 cells expressing human H4 receptor; average of results; > = highest value tested
Experimental: Biological Methods: Binding Assay on Recombinant Human Histamine H4 Receptor
SK-N-MC cells or COS7 cells were transiently transfected with pH4R and grown in 150 cm^2 tissue culture dishes. Cells were washed with saline solution, scraped with a cell scraper and collected by centrifugation (1000 rpm, 5 min). Cell membranes were prepared by homogenization of the cell pellet in 20 mM Tris-HCl with a polytron tissue homogenizer for 10 sec at high speed. Homogenate was centrifuged at 1000 rpm for 5 min at 4° C. The supernatant was then collected and centrifuged at 20,000×g for 25 min at 4° C. The final pellet was resuspended in 50 mM Tris-HCl. Cell membranes were incubated with ^3H-histamine (5-70 nM) in the presence or absence of excess histamine (10,000 nM). Incubation occurred at room temperature for […]. Membranes were harvested by rapid filtration over Whatman GF/C filters and washed 4 times with ice-cold 50 mM Tris HCl. Filters were then dried, mixed with scintillant and counted for radioactivity. SK-N-MC or COS7 cells expressing human histamine H4 receptor were used to measure the affinity of binding of other compounds and their ability to displace ^3H-ligand binding by incubating the above-described reaction in the presence of various concentrations of inhibitor or compound to be tested. For competition binding studies using ^3H-histamine, Ki values were calculated, based on an experimentally determined KD value of 5 nM and a ligand concentration of 5 nM, according to Y.-C.

Ki [nM]	SMILES
349	CN1CCC(CCCn2cc(Cl)c3cc(-c4nc5cc(C(C)(C)C)ccc5[nH]4)ccc32)CC1 [Example 28, 5-tert-Butyl-2-{3-chloro-1-[3-(1-methyl-piperidin-4-yl)-propyl]-1H-indol-5-yl}-1H-benzoimidazole]
1670	Cc1cc(Cl)cc2[nH]c(-c3ccc4c(c3)c(Cl)cn4CCCC3CCN(C)CC3)nc12 [Example 29, 6-Chloro-2-{3-chloro-1-[3-(1-methyl-piperidin-4-yl)-propyl]-1H-indol-5-yl}-4-methyl-1H-benzoimidazole]
47	CN1CCC(CCCCn2cc(Cl)c3c(-c4nc5cc(C(F)(F)F)ccc5[nH]4)cccc32)CC1 [Example 30, 2-{3-Chloro-1-[4-(1-methyl-piperidin-4-yl)-butyl]-1H-indol-4-yl}-5-trifluoromethyl-1H-benzoimidazole]
118	Cc1c(F)ccc2[nH]c(-c3cccc4c3c(Cl)cn4CCCCC3CCN(C)CC3)nc12 [Example 31, 2-{3-Chloro-1-[4-(1-methyl-piperidin-4-yl)-butyl]-1H-indol-4-yl}-5-fluoro-4-methyl-1H-benzoimidazole]
599	CN1CCC(CCCCn2cc(Cl)c3c(-c4nc5cc(F)c(F)cc5[nH]4)cccc32)CC1 [Example 32, 2-{3-Chloro-1-[4-(1-methyl-piperidin-4-yl)-butyl]-1H-indol-4-yl}-5,6-difluoro-1H-benzoimidazole]
1290	Cc1c(F)ccc2[nH]c(-c3ccc4c(ccn4CCCN4CCNCC4)c3)nc12 [Example 33, 5-Fluoro-4-methyl-2-[1-(3-piperazin-1-yl-propyl)-1H-indol-5-yl]-1H-benzoimidazole]
2000	CC(C)(C)c1ccc2[nH]c(-c3ccc4c(c3)c(Cl)cn4CCCC3CCNCC3)nc2c1 [Example 34, 5-tert-Butyl-2-[3-chloro-1-(3-piperidin-4-yl-propyl)-1H-indol-5-yl]-1H-benzoimidazole]
683	Cc1c(F)ccc2[nH]c(-c3cccc4c3ccn4CCCCC3CCNCC3)nc12 [Example 35, 5-Fluoro-4-methyl-2-[1-(4-piperidin-4-yl-butyl)-1H-indol-4-yl]-1H-benzoimidazole]
2330	Clc1cccc2[nH]c(-c3cccc4c3ccn4CCCCC3CCNCC3)nc12 [Example 36, 4-Chloro-2-[1-(4-piperidin-4-yl-butyl)-1H-indol-4-yl]-1H-benzoimidazole]
2230	Cc1cc(C)c2nc(-c3ccc4ccn(CCCCC5CCNCC5)c4c3)[nH]c2c1 [Example 37, 4,6-Dimethyl-2-[1-(4-piperidin-4-yl-butyl)-1H-indol-6-yl]-1H-benzoimidazole]
1140	Cc1c(F)ccc2[nH]c(-c3ccc4ccn(CCCCC5CCNCC5)c4c3)nc12 [Example 38, 5-Fluoro4-methyl-2-[1-(4-piperidin-4-yl-butyl)-1H-indol-6-yl]-1H-benzoimidazole]
2920	CN(C)Cc1cn(CCCCC2CCNCC2)c2ccc(-c3nc4cc(C(C)(C)C)ccc4[nH]3)cc12 [Example 39, [5-(5-tert-Butyl-1H-benzoimidazol-2-yl)-1-(4-piperidin-4-yl-butyl)-1H-indol-3-ylmethyl]-dimethyl-amine]
65	Cc1c(F)ccc2[nH]c(-c3ccc4c(c3)ncn4CCCC3CCN(C)CC3)nc12 [Example 40, 5-Fluoro-4-methyl-1′-[3-(1-methyl-piperidin-4-yl)-propyl]-1H,1′H-[2,5′]bibenzoimidazolyl]
397	Cc1c(F)ccc2[nH]c(-c3ccc4ncn(CCCC5CCN(C)CC5)c4c3)nc12 [Example 41, 5-Fluoro-4-methyl-3′-[3-(1-methyl-piperidin-4-yl)-propyl]-1H,3′H-[2,5′]bibenzoimidazolyl]
2000	Cc1cccc2[nH]c(-c3ccc4c(c3)ncn4CCCCC3CCN(C)CC3)nc12 [Example 42, 4-Methyl-1′-[4-(1-methyl-piperidin-4-yl)-butyl]-1H,1′H-[2.5′]bibenzoimidazolyl]
1670	Cc1cccc2[nH]c(-c3ccc4ncn(CCCCC5CCN(C)CC5)c4c3)nc12 [Example 43, 4-Methyl-3′-[4-(1-methyl-piperidin-4-yl)-butyl]-1H,3′H-[2,5′]bibenzoimidazolyl]
3000	Cc1c(F)ccc2[nH]c(-c3ccc4c(c3)ncn4CCCCC3CCN(C)CC3)nc12 [Example 44, 5-Fluoro-4-methyl-1′-[4-(1-methyl-piperidin-4-yl)-butyl]-1H,1′H-[2.5′]bibenzoimidazolyl]
1670	Cc1c(F)ccc2[nH]c(-c3ccc4ncn(CCCCC5CCN(C)CC5)c4c3)nc12 [Example 45, 5-Fluoro-4-methyl-3′-[4-(1-methyl-piperidin-4-yl)-butyl]-1H,3′H-[2,5′]bibenzoimidazolyl]

Ki [nM]	SMILES
12	Cc1c(F)ccc2[nH]c(-c3cnc4c(ccn4CCCC4CCN(C)CC4)c3)nc12 [Example 46, 5-Fluoro-4-methyl-2-{1-[3-(1-methyl-piperidin-4-yl)-propyl]-1H-pyrrolo[2,3-b]pyridin-5-yl}-1H-benzoimidazole]
56	Cc1ccc2[nH]c(-c3cnc4c(ccn4CCCC4CCN(C)CC4)c3)nc2c1C [Example 47, 4,5-Dimethyl-2-{1-[3-(1-methyl-piperidin-4-yl)-propyl]-1H-pyrrolo[2,3-b]pyridin-5-yl}-1H-benzoimidazole]
1030	CN1CCC(CCCn2ccc3cc(-c4nc5c(F)cc(F)cc5[nH]4)c(Cl)cc32)CC1 [Example 48, 2-{6-Chloro-1-[3-(1-methyl-piperidin-4-yl)-propyl]-1H-indol-5-yl}-4,6-difluoro-1H-benzoimidazole]
1730	Cc1c(F)ccc2[nH]c(-c3cc4ccn(CCCC5CCNCC5)c4cc3Cl)nc12 [Example 49, 2-[6-Chloro-1-(3-piperidin-4-yl-propyl)-1H-indol-5-yl]-5-fluoro-4-methyl-1H-benzoimidazole]
3330	Cc1c(F)ccc2[nH]c(-c3cc4ccn(CCCC5CCN(C)CC5)c4cc3Cl)nc12 [Example 50, 2-{6-Chloro-1-[3-(1-methyl-piperidin-4-yl)-propyl]-1H-indol-5-yl}-5-fluoro-4-methyl-1H-benzoimidazole]
7	Cc1c(F)ccc2[nH]c(-c3ccc4c(ncn4CCCC4CCN(C)CC4)c3C)nc12 [Example 51, 5-Fluoro-4,4′-dimethyl-1′-[3-(1-methyl-piperidin-4-yl)-propyl]-1H,1′H-[2,5′]bibenzoimidazolyl]
33	Cc1ccc2[nH]c(-c3ccc4c(ncn4CCCC4CCN(C)CC4)c3C)nc2c1C [Example 52, 5,4′-Trimethyl-1′-[3-(1-methyl-piperidin-4-yl)-propyl]-1H,1′H-[2,5′]bibenzoimidazolyl]
15	Cc1cccc2[nH]c(-c3ccc4c(ncn4CCCC4CCN(C)CC4)c3C)nc12 [Example 53, 4,4′-Dimethyl-1′-[3-(1-methyl-piperidin-4-yl)-propyl]-1H,1′H-[2,5′]bibenzoimidazolyl]
1	Cc1c(Cl)ccc2[nH]c(-c3ccc4c(ncn4CCCC4CCN(C)CC4)c3C)nc12 [Example 54, 5-Chloro-4,4′-dimethyl-1′-[3-(1-methyl-piperidin-4-yl)-propyl]-1H ,1′H-[2,5′]bibenzoimidazolyl]
4	Cc1cc(F)cc2[nH]c(-c3ccc4c(ncn4CCCC4CCN(C)CC4)c3C)nc12 [Example 55, 6-Fluoro-4,4′-dimethyl-1′-[3-(1-methyl-piperidin-4-yl)-proyl]-1H,1′H-[2,5′]bibenzoimidazolyl]
1900	Cc1ccc2[nH]c(-c3ccc4c(c3)CCN4CCCC3CCNCC3)nc2c1C [Example 56, 4,5-Dimethyl-2-[1-(3-piperidin-4-yl-propyl)-2,3-dihydro-1H-indol-5-yl]-1H-benzoimidazole]
5	Cc1cc(C)c2nc(-c3ccc4c(c3C)CCN4CCCC3CCN(C)CC3)[nH]c2c1 [Example 57, 4,6-Dimethyl-2-{4-methyl-1-[3-(1-methyl-piperidin-4-yl)-propyl]-2,3-dihydro-1H-indol-5-yl}-1H-benzoimidazole]
19	Cc1c(-c2nc3cc(Cl)ccc3[nH]2)ccc2c1CCN2CCCC1CCN(C)CC1 [Example 58, 5-Chloro-2-{4-methyl-1-[3-(1-methyl-piperidin-4-yl)-propyl]-2,3-dihydro-1H-indol-5-yl}-1H-benzoimidazole]
18	Cc1c(-c2nc3c(C)cc(F)cc3[nH]2)ccc2c1CCN2CCCC1CCN(C)CC1 [Example 59, 6-Fluoro-4-methyl-2-{4-methyl-1-[3-(1-methyl-piperidin-4-yl)-propyl]-2,3-dihydro-1H-dihydro-1H-indol-5-yl}-1H-benzoimidazole]
91	Cc1nc2c(ccc3[nH]c(-c4ccc5c(c4C)CCN5CCCC4CCN(C)CC4)nc32)s1 [Example 60, 2-Methyl-7-{4-methyl-1-[3-(1-methyl-piperidin-4-yl)-propyl]-2,3-dihydro-1H-indol-5-yl}-6H-imidazo[4′,5′:3,4]benzo[2,1-d]thiazole]
135	Cc1cc(C)c2nc(-c3ccc4c(ccn4CCCC4CCN(C)CC4)c3)[nH]c2c1 [Example 61]
1310	Cc1ccc2[nH]c(-c3ccc4c(ccn4CCCN4CCNCC4)c3)nc2c1C [Example 62, 4,5-Dimethyl-2-[1-(3-piperazin-1-yl-propyl)-1H-indol-5-yl]-1H-benzoimidazole]
